For orientation: IC50 means the midpoint of a concentration-inhibition curve. A low value points to greater potency in that assay. As usually defined, the EC50 is the concentration at which the effect is half-maximal. As a reminder, the Kd is the free concentration of one partner at which half of the binding sites on the other are occupied at equilibrium, for simple one-to-one binding.

For assay [1], the target named is Spike glycoprotein/Angiotensin-converting enzyme 2 (Severe acute respiratory syndrome coronavirus 2, UniProt P0DTC2+Q9BYF1). The assay is described as follows: Inhibition of SARS-CoV-2 spike protein RBD- human ACE2 interaction. Format: protein assay.
The test system of assay [2] is Respiratory syncytial virus. Description: microbe, parasite or virus in culture. The note with it: human respiratory syncytial virus, A2, HEp-2.
The test system of assay [3] is SARS-CoV-2. Format: functional, organism-based. The note with it: Severe acute respiratory syndrome coronavirus 2, Vero C1008.
Assay [4] deals with SARS-CoV-2. Format: functional, organism-based. The note with it: Severe acute respiratory syndrome coronavirus 2, NRC-03-nhCoV, Vero C1008.
Assay [5] deals with SARS-CoV-2. Description: microbe, parasite or virus in culture. The note with it: Severe acute respiratory syndrome coronavirus 2, Huh-7.
The test system of assay [6] is SARS-CoV-2. Format: functional, organism-based. The note with it: Severe acute respiratory syndrome coronavirus 2, Huh-7.
In assay [7] the test system is SARS-CoV-2. The assay is described as follows: microbe, parasite or virus in culture. The following applies: Severe acute respiratory syndrome coronavirus 2, Vero C1008, 24 h.
Assay [8] relates to SARS-CoV-2. Description: Antiviral activity against VSV-S pseudotyped SARS-CoV-2 infected in human Calu-3 cells assessed as inhibition of viral growth. The note with it: Severe acute respiratory syndrome coronavirus 2, Calu-3. Format: functional, organism-based.
Assay [9] concerns SARS-CoV-2. Format: functional, organism-based. The note with it: Severe acute respiratory syndrome coronavirus 2, Vero C1008, 48 h.
The subject of assay [10] is SARS-CoV-2. Description: Antiviral activity against SARS-CoV-2 WA1/2020 infected in human Calu-3 cells preincubated for 2 hrs followed by viral infection and measured after 48 hrs by microscopy analysis. Format: functional, organism-based. The note with it: Severe acute respiratory syndrome coronavirus 2, WA1/2020, Calu-3.
Assay [11] concerns the target T1, 1-phosphatidylinositol 3-phosphate 5-kinase (Homo sapiens, UniProt Q9Y2I7). The assay is described as follows: Binding affinity to N-terminal His-tagged human PIKfyve expressed in Sf9 cells assessed as dissociation constant.
The subject of assay [12] is SARS-CoV-2. Format: functional, organism-based. The note with it: Severe acute respiratory syndrome coronavirus 2, Vero C1008, 72 h.
The subject of assay [13] is SARS-CoV-2. Format: functional, organism-based. The following applies: Severe acute respiratory syndrome coronavirus 2, NRC-03-nhCoV, Vero C1008, 72 h.
Assay [14] deals with T1, 1-phosphatidylinositol 3-phosphate 5-kinase. Description: Inhibition of PIKfyve (unknown origin).
Assay [15] deals with SARS-CoV-2. Format: functional, organism-based. The note with it: Severe acute respiratory syndrome coronavirus 2, Vero C1008, 48 h. This is another data set of the same source.
The target of assay [16] is Replicase polyprotein 1ab (Severe acute respiratory syndrome coronavirus 2, UniProt P0DTD1). The assay is described as follows: Inhibition of SARS-CoV-2 MPro expressed in Escherichia coli BL21 (DE3) using Dabcyl-KTSAVLQSGFRKME-Edans as substrate incubated for 1 hr by fluorescence based analysis.
For assay [17], the target named is Neuropilin-1 (Homo sapiens, UniProt O14786). Description: Inhibition of [125I]-VEGF-A165 binding to NRP1 (unknown origin) in HUVEC cells. Format: cell-based.

Molecules are shown by their SMILES.

T1 sequence (Q9Y2I7 whole entry): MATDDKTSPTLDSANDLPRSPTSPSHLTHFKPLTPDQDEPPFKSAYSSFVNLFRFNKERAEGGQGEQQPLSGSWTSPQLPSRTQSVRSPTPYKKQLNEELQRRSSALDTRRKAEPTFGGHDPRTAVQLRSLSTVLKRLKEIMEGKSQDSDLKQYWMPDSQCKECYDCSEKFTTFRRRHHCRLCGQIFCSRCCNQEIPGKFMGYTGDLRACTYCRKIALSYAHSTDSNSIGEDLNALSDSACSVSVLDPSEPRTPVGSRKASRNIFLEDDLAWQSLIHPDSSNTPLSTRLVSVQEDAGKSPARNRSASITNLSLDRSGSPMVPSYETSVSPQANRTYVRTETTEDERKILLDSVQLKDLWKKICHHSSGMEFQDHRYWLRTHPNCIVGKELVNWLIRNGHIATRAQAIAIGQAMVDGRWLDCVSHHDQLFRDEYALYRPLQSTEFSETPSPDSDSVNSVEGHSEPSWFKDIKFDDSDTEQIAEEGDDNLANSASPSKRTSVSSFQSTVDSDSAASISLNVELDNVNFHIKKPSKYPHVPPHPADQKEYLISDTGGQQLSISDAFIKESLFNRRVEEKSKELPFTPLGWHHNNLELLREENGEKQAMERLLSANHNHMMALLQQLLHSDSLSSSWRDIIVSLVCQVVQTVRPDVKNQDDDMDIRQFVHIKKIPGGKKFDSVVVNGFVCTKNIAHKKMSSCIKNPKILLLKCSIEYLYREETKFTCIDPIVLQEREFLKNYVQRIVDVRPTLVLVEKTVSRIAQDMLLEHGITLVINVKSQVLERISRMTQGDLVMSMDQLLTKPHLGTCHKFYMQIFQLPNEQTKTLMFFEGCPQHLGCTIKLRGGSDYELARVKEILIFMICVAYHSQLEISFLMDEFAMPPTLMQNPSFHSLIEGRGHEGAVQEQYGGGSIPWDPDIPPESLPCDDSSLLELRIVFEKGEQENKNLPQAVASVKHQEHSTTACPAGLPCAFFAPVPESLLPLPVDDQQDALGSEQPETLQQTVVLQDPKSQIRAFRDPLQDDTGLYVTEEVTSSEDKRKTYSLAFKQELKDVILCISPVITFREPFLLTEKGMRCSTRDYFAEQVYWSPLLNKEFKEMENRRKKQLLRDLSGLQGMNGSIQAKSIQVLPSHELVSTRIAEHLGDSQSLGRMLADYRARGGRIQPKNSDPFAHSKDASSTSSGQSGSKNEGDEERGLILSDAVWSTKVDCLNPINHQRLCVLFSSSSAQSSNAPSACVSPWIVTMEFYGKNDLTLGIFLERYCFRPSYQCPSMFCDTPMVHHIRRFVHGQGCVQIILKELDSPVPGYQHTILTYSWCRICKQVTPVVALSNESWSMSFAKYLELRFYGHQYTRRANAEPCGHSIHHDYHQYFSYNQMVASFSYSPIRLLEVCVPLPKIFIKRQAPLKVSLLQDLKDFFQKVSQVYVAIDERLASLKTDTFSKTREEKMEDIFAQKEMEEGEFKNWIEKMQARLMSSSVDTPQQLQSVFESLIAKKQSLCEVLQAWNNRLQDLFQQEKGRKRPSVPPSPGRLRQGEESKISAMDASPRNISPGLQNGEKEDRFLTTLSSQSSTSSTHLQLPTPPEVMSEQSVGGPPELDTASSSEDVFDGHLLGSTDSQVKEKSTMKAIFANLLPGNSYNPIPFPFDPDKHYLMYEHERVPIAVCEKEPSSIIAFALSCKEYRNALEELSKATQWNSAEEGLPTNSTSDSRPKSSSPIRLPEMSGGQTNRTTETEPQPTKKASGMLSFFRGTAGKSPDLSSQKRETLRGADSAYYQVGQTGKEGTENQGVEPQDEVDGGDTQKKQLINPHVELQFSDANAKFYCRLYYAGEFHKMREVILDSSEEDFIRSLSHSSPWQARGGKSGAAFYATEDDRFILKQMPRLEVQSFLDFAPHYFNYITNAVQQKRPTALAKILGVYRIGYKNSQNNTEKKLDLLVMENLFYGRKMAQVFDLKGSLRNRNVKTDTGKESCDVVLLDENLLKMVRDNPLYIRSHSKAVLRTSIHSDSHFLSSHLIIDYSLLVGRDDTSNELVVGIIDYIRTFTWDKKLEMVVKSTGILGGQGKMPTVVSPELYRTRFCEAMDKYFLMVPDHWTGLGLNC
Spike glycoprotein/Angiotensin-converting enzyme 2, sequence (Q9BYF1 18-805 limits assumed, other chains not shown): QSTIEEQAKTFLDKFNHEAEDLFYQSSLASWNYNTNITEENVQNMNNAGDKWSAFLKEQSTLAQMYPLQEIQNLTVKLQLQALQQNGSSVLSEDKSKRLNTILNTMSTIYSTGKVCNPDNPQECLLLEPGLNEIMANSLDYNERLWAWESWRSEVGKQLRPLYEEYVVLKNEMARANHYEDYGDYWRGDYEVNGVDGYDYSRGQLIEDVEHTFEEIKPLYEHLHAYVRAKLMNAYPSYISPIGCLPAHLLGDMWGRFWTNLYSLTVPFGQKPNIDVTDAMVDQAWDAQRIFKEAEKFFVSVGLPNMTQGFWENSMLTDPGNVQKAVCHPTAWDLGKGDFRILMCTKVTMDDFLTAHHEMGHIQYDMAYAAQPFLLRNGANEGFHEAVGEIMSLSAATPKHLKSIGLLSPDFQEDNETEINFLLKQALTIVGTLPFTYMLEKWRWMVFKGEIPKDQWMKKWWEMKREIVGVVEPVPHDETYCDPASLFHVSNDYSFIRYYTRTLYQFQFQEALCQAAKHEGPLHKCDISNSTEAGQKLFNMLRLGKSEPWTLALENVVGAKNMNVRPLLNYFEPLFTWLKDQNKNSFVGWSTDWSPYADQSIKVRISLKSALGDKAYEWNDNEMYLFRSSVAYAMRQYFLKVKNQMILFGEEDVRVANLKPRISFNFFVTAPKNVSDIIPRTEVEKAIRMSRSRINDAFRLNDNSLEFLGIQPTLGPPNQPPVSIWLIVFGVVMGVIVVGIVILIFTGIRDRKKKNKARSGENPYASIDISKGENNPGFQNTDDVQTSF
Neuropilin-1, sequence (O14786 whole entry): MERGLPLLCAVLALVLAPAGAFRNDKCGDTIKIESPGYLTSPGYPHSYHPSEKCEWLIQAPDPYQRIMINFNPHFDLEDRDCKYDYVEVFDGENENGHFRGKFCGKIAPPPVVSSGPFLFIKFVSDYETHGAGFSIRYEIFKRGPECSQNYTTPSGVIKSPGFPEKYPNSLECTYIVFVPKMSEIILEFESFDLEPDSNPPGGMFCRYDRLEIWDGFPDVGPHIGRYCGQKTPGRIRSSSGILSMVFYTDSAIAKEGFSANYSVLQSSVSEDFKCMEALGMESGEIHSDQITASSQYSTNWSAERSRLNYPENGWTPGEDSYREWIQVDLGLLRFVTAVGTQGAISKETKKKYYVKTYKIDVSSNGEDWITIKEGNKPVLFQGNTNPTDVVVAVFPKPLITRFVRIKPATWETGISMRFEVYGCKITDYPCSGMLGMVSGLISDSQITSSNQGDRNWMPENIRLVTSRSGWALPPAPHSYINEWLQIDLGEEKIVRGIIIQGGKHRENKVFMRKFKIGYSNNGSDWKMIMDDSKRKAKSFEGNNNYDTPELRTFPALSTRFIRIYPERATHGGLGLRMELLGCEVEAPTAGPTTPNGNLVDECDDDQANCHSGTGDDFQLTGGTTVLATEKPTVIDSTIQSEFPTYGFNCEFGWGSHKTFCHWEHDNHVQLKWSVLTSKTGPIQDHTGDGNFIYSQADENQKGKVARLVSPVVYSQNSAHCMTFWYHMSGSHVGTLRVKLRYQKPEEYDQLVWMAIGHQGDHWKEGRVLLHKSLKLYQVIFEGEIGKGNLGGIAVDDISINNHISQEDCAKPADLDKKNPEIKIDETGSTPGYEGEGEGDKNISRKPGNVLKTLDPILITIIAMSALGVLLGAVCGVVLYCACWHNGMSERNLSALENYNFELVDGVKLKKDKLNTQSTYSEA

`CC(C)CCC[C@@H](C)[C@H]1CC[C@H]2[C@@H]3CC[C@H]4C[C@@H](O[C@@H]5O[C@H](COS(=O)(=O)[O-])[C@@H](O[C@H]6O[C@H](COS(=O)(=O)[O-])[C@@H](O[C@H]7O[C@H](COS(=O)(=O)[O-])[C@@H](O[C@H]8O[C@H](COS(=O)(=O)[O-])[C@@H](OS(=O)(=O)[O-])[C@H](OS(=O)(=O)[O-])[C@H]8OS(=O)(=O)[O-])[C@H](OS(=O)(=O)[O-])[C@H]7OS(=O)(=O)[O-])[C@H](OS(=O)(=O)[O-])[C@H]6OS(=O)(=O)[O-])[C@H](OS(=O)(=O)[O-])[C@H]5OS(=O)(=O)[O-])CC[C@]4(C)[C@H]3CC[C@]12C.[Na+].[Na+].[Na+].[Na+].[Na+].[Na+].[Na+].[Na+].[Na+].[Na+].[Na+].[Na+].[Na+]`: the IC50 in [1] is 4270 nM; in assay [2], 9.9 µg/mL. Also, a half-maximal response in assay [3] (EC50) required 0.9 µg/mL.
The molecule `CCC[C@H](NC(=O)[C@@H]1[C@H]2CCC[C@H]2CN1C(=O)[C@@H](NC(=O)[C@@H](NC(=O)c1cnccn1)C1CCCCC1)C(C)(C)C)C(=O)C(=O)NC1CC1` gave an IC50 in [4] of 11600 nM.
In the case of `C[C@H](NC(=O)[C@H](Cc1ccccc1)NC(=O)OCc1ccccc1)C(=O)CF`, the figures for the EC50 in [5] and in assay [6] were 701000 nM and 9610 nM, respectively.
For the molecule `CC(C)(C)OC(=O)N[C@@H](Cc1c[nH]c2ccccc12)C(=O)NNC(=O)OCC(=O)N1CCCc2ccccc21`, a half-maximal response in assay [7] (EC50) required 10900 nM.
With `CC(=O)N[C@@H](CO)C(=O)N[C@@H](CCCCN)C(=O)N[C@@H](CC(C)C)C(=O)N[C@@H](CCCNC(=N)N)C(=O)c1nc2ccccc2s1`, the EC50 in assay [8] amounted to 4270 nM.
Regarding `CC(=O)N[C@H]1CC(=O)NCCCC[C@@H](C(=O)N[C@@H](CCCNC(=N)N)C(=O)c2nc3ccccc3s2)NC(=O)[C@H](CC(C)C)NC1=O`, the EC50 amounted to 104 nM in [9] and 197 nM in assay [8]. Further, in assay [10], 660 nM corresponded to half-maximal inhibition (IC50).
Take `Ic1cccc(/C=N/Nc2nc(N3CCOCC3)nc(N(c3ccccc3)c3ccccc3)n2)c1`: the Kd in [11] amounted to 32 nM.
In turn, `COc1ccc(C(=O)Nc2cccc(C(F)(F)F)c2)cc1Nc1nc(-c2cccnc2)c2[nH]ccc2n1` returned an EC50 in assay [12] of 9.3 nM.
In assay [13], `COc1ccccc1/C=N/NC(=N)c1nonc1NCNc1nonc1C(=N)N/N=C/c1ccccc1OC` registered a 50% inhibitory concentration (IC50) of 19 nM.
For the molecule `CN(C)Cc1ccc2[nH]c3c(c2c1)Cc1nc(N)ncc1CC3`, the IC50 was 6.9 nM in assay [14] and 19.5 nM in assay [15].
As to `CS(=O)(=O)N[C@@H](CCC(N)=O)C(=O)N[C@@H](Cc1ccccc1)C(=O)N[C@@H](CCCNC(=N)N)C(=O)c1nc2ccccc2s1`, in [8], the EC50 was determined as 2.8 nM.
As to `CC(=O)N[C@@H](CC(C)C)C(=O)N[C@@H](CC(C)C)C(=O)N[C@H](C=O)CCCNC(=N)N`, the EC50 in assay [5] was 39300 nM; in assay [6] it was 10600 nM. The IC50 in [16] turned out to be 127000 nM.
For `C1=Nc2ccccc2/C1=C\NNc1nc(Nc2ccccc2)nc(N2CCOCC2)n1`, the Kd in assay [11] is 0.91 nM.
As to `O=C(N[C@H](/C=C/S(=O)(=O)c1ccccc1)CCc1ccccc1)[C@H](Cc1ccccc1)NC(=O)N1CCNCC1`, it took 35 nM to reach a half-maximal effect in assay [7] (EC50).
`CC(=O)N[C@@H](CCC(N)=O)C(=O)N[C@@H](Cc1ccccc1)C(=O)N[C@@H](CCCNC(=N)N)C(=O)c1nc2ccccc2s1`: the IC50 in assay [10] amounted to 52 nM. Moreover, in [8], the EC50 came to 0.53 nM.
In assay [10], `CC(=O)NCC(=O)N[C@@H](CCC(N)=O)C(=O)N[C@@H](Cc1ccccc1)C(=O)N[C@@H](CCCNC(=N)N)C(=O)c1nc2ccccc2s1` registered an IC50 of 74 nM. The EC50 in [8] worked out at 0.43 nM.
On to `CCC(O)(CC)c1ccc2[nH]c3c(c2c1)Cc1nc(N)ncc1CC3`, for which the half-inhibitory concentration (IC50) in assay [14] was 1.8 nM; in assay [15], 23.9 nM.
In assay [17], `Cc1nc(N2CCOCC2)ncc1-c1cc(=O)[nH]c(Nc2ccccc2)n1` registered an IC50 of 0.598 nM.

For the origin of these results see ChEMBL document CHEMBL5505952, “Targeting SARS-CoV-2 entry processes: The promising potential and future of host-targeted small-molecule inhibitors” (Eur J Med Chem, 2024).
